Where “and” joins values, the source holds several entries; their conditions need not be identical. Equal values may be shown once.
Target: T1, Nurr1-LBD (Mus musculus, UniProt Q06219)
T1 construct: transfected with pCMV-fNurr1, pGAL-Nurr1(LBD), pGAL-Nor1(LBD) or pGAL-Nur77(LBD) and reporter construct; expressed in transfected cells; host or cells: SK-N-BE(2)C (human neuroblastoma), N27-A (rat dopaminergic), MN9D (murine dopaminergic)
Assay: Luciferase reporter assay, Nurr1-LBD, SK-N-BE(2)C cells
Type: cell-based
Details: for Maximum fold activity / EC50: Nurr1 activation; for Maximum fold activity: Supplementary Table 1; for Nurr1 activation (in words): Nurr1 reporter assays
Text: Nurr1 transactivity was normalized to β-galactosidase activity.

[1] = Supplementary Table 1, values given in nM
[2] = Supplementary Table 1, values in µM

T1 sequence (Q06219 360-595 limits assumed): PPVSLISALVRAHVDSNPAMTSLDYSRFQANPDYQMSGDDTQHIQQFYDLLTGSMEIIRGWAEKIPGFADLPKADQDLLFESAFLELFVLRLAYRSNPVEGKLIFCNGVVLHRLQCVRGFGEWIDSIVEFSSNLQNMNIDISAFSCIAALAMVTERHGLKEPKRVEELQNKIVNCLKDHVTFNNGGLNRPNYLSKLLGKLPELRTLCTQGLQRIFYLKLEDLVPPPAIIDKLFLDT

Maximum fold activity	EC50 [1]	Nurr1 activation (in words)	EC50 [2]	Structure (SMILES)
4.07 ± 0.53 fold	431 ± 15.1 nM	–	–	Cc1cc(N2CCN(C)CC2)nc(N(CCNc2ccnc3cc(Cl)ccc23)Cc2cccs2)n1 [4A7C-504]
3.01 ± 0.13 fold	2.62 ± 0.96 nM	–	–	CCN1CCN(c2nc(NCCCCNc3ccnc4cc(Cl)ccc34)c3ccccc3n2)CC1 [4A7C-401]
10.01 ± 0.06 fold	25.5 ± 42.2 nM	good Nurr1 activities	–	CCN1CCN(c2cc(N3CCN(C)CC3)nc(NCCNc3ccnc4cc(Cl)ccc34)n2)CC1 [4A7C-306]
3.52 ± 0.19 fold	634.5 ± 1.37 nM	diminished Nurr1 activity	–	CCN1CCN(c2cc(Cl)nc(NCCCNc3ccnc4cc(Cl)ccc34)n2)CC1 [4A7C-103]
10.71 ± 0.44 fold	–	–	10000 ± 760 nM	CCN1CCN(c2nccc(N3CCN(CCNc4ccnc5cc(Cl)ccc45)CC3)n2)CC1 [4A7C-206]
5.71 ± 0.81 fold	–	–	1080 ± 370 nM	Cc1cc(NC2CCCC(Nc3ccnc4cc(Cl)ccc34)C2)nc(N2CCOCC2)n1 (stereo not drawn) [4A7C-605]
3.44 ± 0.28 fold	–	–	3860 ± 260 nM	Cc1cc(NC2CCCC(Nc3ccnc4cc(Cl)ccc34)C2)nc(N2CCN(c3ccccc3)CC2)n1 (stereo not drawn) [4A7C-602]
2.25 ± 0.26 fold	1.07 ± 0.12 nM	–	–	Cc1cc(N2CCOCC2)nc(N(CCNc2ccnc3cc(Cl)ccc23)Cc2cccs2)n1 [4A7C-503]
10.51 ± 0.85 fold	–	–	3390 ± 260 nM	Cc1cc(N(CCNc2ccnc3cc(Cl)ccc23)Cc2ccc3c(c2)OCO3)nc(N2CCN(C)CC2)n1 [4A7C-501]
7.60 ± 0.08 fold	–	good Nurr1 activities	1040 nM	CCN1CCN(c2cc(N3CCOCC3)nc(NCCNc3ccnc4cc(Cl)ccc34)n2)CC1 [4A7C-305]
4.99 ± 0.86 fold	0.51 ± 0.06 nM	–	–	Cc1cc(N(CCNc2ccnc3cc(Cl)ccc23)Cc2cccs2)nc(Cl)n1 [4A7C-502]
3.78 ± 0.25 fold	1.28 ± 0.63 nM	–	–	Cc1cc(N2CCN(CCNc3ccnc4cc(Cl)ccc34)CC2)nc(N2CCCC2)n1 [4A7C-202]
4.46 ± 0.67 fold	33.7 ± 0.34 nM	–	–	Clc1ccc2c(NCCN3CCN(c4ccnc(N5CCSCC5)n4)CC3)ccnc2c1 [4A7C-204]
4.22 ± 0.16 fold	17 ± 4.97 nM	–	–	Clc1ccc2c(NCCN3CCN(c4ccnc(Cl)n4)CC3)ccnc2c1 [4A7C-203]
4.50 ± 1.59 fold	–	–	2230 ± 400 nM	Cc1cc(N2CCN(C)CC2)nc(NC2CCCC(Nc3ccnc4cc(Cl)ccc34)C2)n1 (stereo not drawn) [4A7C-607]
4.49 ± 0.43 fold	9.83 ± 0.29 nM	–	–	Cc1cc(N(CCNc2ccnc3cc(Cl)ccc23)Cc2cccs2)nc(N2CCOCC2)n1 [4A7C-506]
6.31 ± 0.82 fold	–	–	1140 ± 130 nM	Cc1cc(N2CCN(c3ccccc3)CC2)nc(NC2CCCC(Nc3ccnc4cc(Cl)ccc34)C2)n1 (stereo not drawn) [4A7C-608]
9.50 ± 0.22 fold	8.5 ± 18.6 nM	good activity	–	CCN1CCN(c2cc(NCCNc3ccnc4cc(Cl)ccc34)nc(N3CCN(CC)CC3)n2)CC1 [4A7C-303]
4.78 ± 0.31 fold	14.6 ± 1.38 nM	–	–	Cc1cc(N2CCN(CCNc3ccnc4cc(Cl)ccc34)CC2)nc(N2CCN(C)CC2)n1 [4A7C-201]
3.24 ± 0.40 fold	94.9 ± 1.66 nM	–	–	CCN1CCN(c2cc(C)nc(N(CCNc3ccnc4cc(Cl)ccc34)Cc3cccs3)n2)CC1 [4A7C-507]
3.68 ± 0.04 fold and 3.68 fold	143 nM	–	–	CCN1CCN(c2nc(C)cc(NCCCNc3ccnc4cc(Cl)ccc34)n2)CC1 [4A7C-102]

Structure (SMILES)	Maximum fold activity	EC50 [1]	Nurr1 activation (in words)	EC50 [2]
Cc1cc(N(CCNc2ccnc3cc(Cl)ccc23)Cc2cccs2)nc(N2CCCCC2)n1 [4A7C-505]	3.65 ± 0.31 fold	2.14 ± 0.45 nM	–	–
CCN1CCN(c2cc(N3CCCCC3)nc(NCCNc3ccnc4cc(Cl)ccc34)n2)CC1 [4A7C-304]	2.16 ± 0.03 fold	9.67 ± 7.87 nM	good Nurr1 activities	–
